From US20190192458A1, “THERAPEUTIC/PROPHYLACTIC AGENT FOR GRAFT-VERSUS-HOST DISEASE, FIBROCYTE INVASION INHIBITOR, AND INHIBITOR AGAINST TEAR REDUCTION AND REDUCTION IN GOBLET CELLS” (KEIO UNIVERSITY, priority 2016, published 2019)

What was measured:
[1] = tested on: mouse splenic macrophages; assay: Cultured splenic macrophages from PBA-treated and vehicle-treated mice (immunofluorescence, immunoblot, qPCR); type: cell-based
Experimental: (§1) Bone marrow transplantation was performed as described in the above section “Bone marrow transplantation,” and the resulting allogeneic bone marrow transplantation recipient mice were divided into two groups. One group was treated with intraperitoneal injection of PBA (10 mg/kg) (Aldrich) while the other was treated with intraperitoneal injection of a solvent vehicle⋅phosphate buffered saline (PBS) (pH 7.4). The allogeneic bone marrow transplantation recipients received once-daily administration of PBA or the solvent vehicle from Day 10 to Day 27 after bone marrow transplantation. They were sacrificed on Day 28 after bone marrow transplantation.
Mouse splenic macrophages were cultured according to the Alatery and Besta method (Alatery A, Basta S, An efficient culture method for generating large quantities of mature mouse splenic macrophages. J Immunol Methods, 2008; 338: 47-57). Splenic cells suspended in RPMI containing 5% FBS were plated on a culture dish, and allowed to stand at 37° C. overnight. Subsequently, floating cells were removed. The desired cells adhering on the dish were cultured for 7 days in RPMI containing recombinant mouse M-CSF (5 ng/mL) (Peprotech Inc.), 5% of FBS, and 5% of the antibiotic. Induced macrophages were then detached from the culture dish by using accutase (Thermo Fisher Scientific), and used for experiments.
The induced macrophages were then transferred to an 8-well chamber slide (Fibronectin Culture Slide; Corning), and fixed with 10% neutral buffered formalin. Subsequently, they were blocked with methanol containing 0.3% hydrogen peroxide for 30 minutes at room temperature, and incubated with primary antibodies CD68 (AbD Serotec) and CHOP (Santa Cruz) overnight at 4° C. Then, the sections were treated with goat anti-mouse IgG (H+L) secondary antibody conjugated with Alexa Fluor 568 (Molecular Probes) and 4′,6-diamidino-2-phenylindole (DAPI) (Life Technologies) at room temperature for 45 minutes, and then mounted with an anti-fading mounting medium (Dako). Fluorescence images were captured under an LSM confocal microscope (Carl Zeiss).
(§2) The total RNA was extracted from the exorbital lacrimal gland, the proximal portion of the small intestine, the dorsal skin, the liver, the cultured fibroblasts, and the cultured macrophages using a miRNeasy mini kit (Qiagen), and the corresponding complementary DNAs were synthesized using a Rever Tra Ace qPCR RT kit (Toyobo Co., Ltd.). Primers used for analyzing the mRNA expression of the following genes with the TaqMan real-time polymerase chain reaction (PCR) were purchased from Applied Biosystems: housekeeping gene […] (GAPDH), glucose-regulated protein 78 (GRP78), Interleukin-1β (IL-1β), IL-6, IL-10, macrophage chemoattractant protein-1 (MCP-1), and transcription growth factor-β (TGF). A Step One Plus system (Applied Biosystems) was used to perform quantitative real time PCR, and the resulting data was analyzed by the 2^−ΔΔCT method. GAPDH was used as an internal standard for measuring the expression of mRNA.
(§3) Tissues of interest were each placed into an Eppendorf tube, and a pre-cooled RIPA buffer solution was then added to the tube. Subsequently, the tissues were each homogenized with an electric homogenizer. Samples were each allowed to stand on ice for 1 hour, and then centrifuged at 15000 rpm for 5 minutes at 4° C. Then, the supernatants were each collected in a fresh tube on ice, and used as a cell lysate. The cell lysates each received the same amount of a 5×Laemmli buffer solution, and each was heated at 100° C. for 5 minutes to denature proteins.
An aliquot of each sample having the same amount of proteins was loaded into a well of an SDS-PAGE gel, and then […]. Proteins were transferred from the gel to a membrane at 15 V for 20 minutes. The membrane was blocked at room temperature for 1 hour with 5% skim milk or 5% BSA (bovine serum albumin) in 1×TBST (a mixture of Tris-buffered saline and Tween 20). […]

[2] = tested on: mouse lacrimal gland fibroblasts; assay: Cultured lacrimal gland fibroblasts from PBA-treated and vehicle-treated mice (immunoblot, ELISA, qPCR); type: cell-based
Experimental: as §1
Fibroblasts from a mouse lacrimal gland were cultured by an established method reported by Yaguchi et al. (Yaguchi S, Ogawa Y, Shimmura S, et al., Presence and Physiologic Function of the Renin—Angiotensin System in Mouse Lacrimal Gland. Investigative Ophthalmology & Visual Science, 2012; 53: 5416-5425). A mouse lacrimal gland was collected and cut into small pieces. The tissue pieces were incubated at 37° C. in DMEM (Life Technologies Japan Ltd.) containing 5% of fetal bovine serum (FBS) Sigma), and 5% of an antibiotic. The antibiotic included a 1:1 mixture of streptomycin sulfate (Meiji Seika Pharma Co., Ltd.) and benzylpenicillin potassium (Meiji Seika Kaisha, Ltd.). The small pieces were used to grow fibroblasts starting from 3 to 4 days later. Fibroblasts were cultured in DMEM containing 5% of FBS and 5% of the antibiotic, and were used in experiments after 3 to 5 passages. Trypsin (Becton Dickinson) was used to detach fibroblasts from the culture dish.
as §2, §3
An aliquot of each sample having the same amount of proteins was loaded into a well of an SDS-PAGE gel, and then […]. Proteins were transferred from the gel to a membrane at 15 V for 20 minutes. The membrane was blocked at room temperature for 1 hour with 5% skim milk or 5% BSA (bovine serum albumin) in 1×TBST (a mixture of Tris-buffered saline and Tween 20). Subsequently, the membrane was incubated with a primary antibody at 4° C. overnight. The above primary antibody was diluted 1000 times with 5% skim milk or 5% BSA in 1×TBST. After incubation with the primary antibody, the membrane was washed with 1×TBST (3×10 minutes), and subjected to a secondary antibody at room temperature for 1 hour, and then washed with 1×TBST (3×10 minutes) and 1×TBS (2×10 minutes).
Proteins of interest were visualized by either one of the following two methods. […]

[3] = splenic macrophages from PBA-treated vs vehicle-treated mouse, immunoblot, n=4
[4] = splenic macrophages, qPCR, n=4 to 5, PBA-treated vs vehicle-treated, FIG. 7E
[5] = PBA-treated vs vehicle-treated fibroblasts, immunoblot, n=4
[6] = cultured fibroblasts from PBA-treated vs vehicle-treated mice, immunoblot

O=C(O)CCCc1ccccc1 [PBA, 4-phenyl-n-butyric acid]
CHOP expression in cultured splenic macrophages (immunofluorescence) ([1]; splenic macrophages from PBA-treated vs vehicle-treated mouse, FIG. 7B): vehicle-treated splenic macrophages express CHOP in contrast with PBA-treated splenic macrophages
CHOP in splenic macrophages (immunoblot) [1, 3]: substantially inhibited
GRP78 in splenic macrophages [1, 3]: substantially inhibited
phosphorylated IRE1α in splenic macrophages [1, 3]: substantially inhibited
phosphorylated PERK in splenic macrophages [1, 3]: substantially inhibited
phosphorylated eIF2α in splenic macrophages [1, 3]: substantially inhibited
gene expression of M1 macrophage marker IL-1β [1, 4]: higher gene expressions
gene expression of M1 macrophage marker IL-6 [1, 4]: higher gene expressions
mRNA expression of M2 macrophage marker IL-10 [1, 4]: increased in the vehicle-treated macrophages as compared with the PBA-treated macrophages
mRNA expression of M2 macrophage marker TGF-β [1, 4]: increased in the vehicle-treated macrophages as compared with the PBA-treated macrophages
production of MCP-1 by lacrimal gland fibroblasts ([2]; PBA-treated vs vehicle-treated fibroblasts, ELISA, n=4): decreased
protein level of CTGF in lacrimal gland fibroblasts [2, 5]: decreased
protein level of HSP47 in lacrimal gland fibroblasts [2, 5]: decreased
mRNA levels of IL-6 in lacrimal gland fibroblasts ([2]; PBA-treated vs vehicle-treated fibroblasts, qPCR, n=4): decreased
CHOP in lacrimal gland fibroblasts [2, 6]: markedly inhibited
GRP78 in lacrimal gland fibroblasts [2, 6]: markedly inhibited
phosphorylated IRE1α in lacrimal gland fibroblasts [2, 6]: markedly inhibited
phosphorylated PERK in lacrimal gland fibroblasts [2, 6]: markedly inhibited
phosphorylated eIF2α in lacrimal gland fibroblasts [2, 6]: markedly inhibited
